Source: patent US11219623B2, “Inflammasome inhibition for the treatment of Parkinson's disease, Alzheimer's disease and multiple sclerosis” (University of Kentucky Research Foundation, priority 2015, dated 2022)

Legend:
[1] = LogP, partition coefficient in 1-octanol; type: physicochemical; settings: 1-octanol partition
Caspase-1 [2] = test: iGLuc luminescence assay of ATP-induced Caspase-1 activation in J774 iGLuc cells; type: cell-based, mouse
Caspase-1 [3] = test: Alu RNA-induced Caspase-1 activation, primary mouse RPE cells; type: cell-based
IL-18 = test: LPS/ATP-induced IL-18 maturation, mouse bone marrow-derived macrophages; type: cell-based; settings: 100 uM; cell culture supernatants
IL-1 beta = test: LPS/ATP-induced IL-1 beta secretion, mouse bone marrow-derived macrophages; type: cell-based; settings: primary mouse bone marrow-derived macrophages
From the text: To determine whether LPS/ATP-induced inflammasome activation can be inhibited without RT inhibition, the present inventors utilized thymidine kinase-deficient (Raji/TK^−) and -expressing (Raji/TK^+) cells (Balzarini et al., 1989).

primary human RPE cells = test: Extracellular potassium after Alu RNA transfection, potassium-dependent pyruvate kinase assay; type: cell-based; settings: 6 hours
Protocol: For FIG. 18, potassium levels were determined in cell culture supernatants spectrophotometrically using a potassium-dependent pyruvate kinase assay.

mouse P2X7 receptor = target: T1, mouse P2X7 receptor (Mus musculus, UniProt Q9Z1M0); test: P2X7 cation channel function, patch clamp, HEK293 cells expressing mouse P2X7; type: cell-based; settings: mouse P2X7 in HEK293
T1 construct: expressed in transfected cells; host or cells: HEK293 cells
T1 sequence (Q9Z1M0 whole entry): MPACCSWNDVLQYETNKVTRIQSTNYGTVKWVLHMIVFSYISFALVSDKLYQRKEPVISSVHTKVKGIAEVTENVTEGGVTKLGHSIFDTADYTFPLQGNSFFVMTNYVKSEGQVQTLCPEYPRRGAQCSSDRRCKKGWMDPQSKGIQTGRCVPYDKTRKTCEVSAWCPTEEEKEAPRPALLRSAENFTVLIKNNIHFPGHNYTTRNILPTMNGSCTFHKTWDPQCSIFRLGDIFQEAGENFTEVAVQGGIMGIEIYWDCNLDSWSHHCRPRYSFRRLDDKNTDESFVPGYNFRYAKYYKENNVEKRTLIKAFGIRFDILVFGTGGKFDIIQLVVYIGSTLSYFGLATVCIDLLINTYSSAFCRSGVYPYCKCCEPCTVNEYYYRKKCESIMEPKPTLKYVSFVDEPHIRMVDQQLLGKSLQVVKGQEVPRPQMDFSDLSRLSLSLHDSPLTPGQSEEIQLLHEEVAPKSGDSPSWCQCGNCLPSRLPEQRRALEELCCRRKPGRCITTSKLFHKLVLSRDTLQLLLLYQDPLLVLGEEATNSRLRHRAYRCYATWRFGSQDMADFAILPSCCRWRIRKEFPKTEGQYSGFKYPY

[4] = system: GFP-expressing lentivirus; test: GFP-expressing lentivirus transduction/replication assay in HeLa cells; type: cell-based
[5] = NLRP3- and P2X7-driven model of sterile liver inflammation; settings: in vivo
From the text: To explore the potential therapeutic relevance of NRTIs beyond the Alu-induced model of geographic atrophy (GA), it was hypothesized that if NRTIs function as generic inflammasome inhibitors, then they might be broadly useful in other animal models of disease that are also driven by P2X7.

human P2X7 receptor = target: T2, human P2X7 receptor (Homo sapiens, UniProt Q99572); settings: 64 μM drug; bzATP 100 μM; n=12
T2 sequence (Q99572 1-595): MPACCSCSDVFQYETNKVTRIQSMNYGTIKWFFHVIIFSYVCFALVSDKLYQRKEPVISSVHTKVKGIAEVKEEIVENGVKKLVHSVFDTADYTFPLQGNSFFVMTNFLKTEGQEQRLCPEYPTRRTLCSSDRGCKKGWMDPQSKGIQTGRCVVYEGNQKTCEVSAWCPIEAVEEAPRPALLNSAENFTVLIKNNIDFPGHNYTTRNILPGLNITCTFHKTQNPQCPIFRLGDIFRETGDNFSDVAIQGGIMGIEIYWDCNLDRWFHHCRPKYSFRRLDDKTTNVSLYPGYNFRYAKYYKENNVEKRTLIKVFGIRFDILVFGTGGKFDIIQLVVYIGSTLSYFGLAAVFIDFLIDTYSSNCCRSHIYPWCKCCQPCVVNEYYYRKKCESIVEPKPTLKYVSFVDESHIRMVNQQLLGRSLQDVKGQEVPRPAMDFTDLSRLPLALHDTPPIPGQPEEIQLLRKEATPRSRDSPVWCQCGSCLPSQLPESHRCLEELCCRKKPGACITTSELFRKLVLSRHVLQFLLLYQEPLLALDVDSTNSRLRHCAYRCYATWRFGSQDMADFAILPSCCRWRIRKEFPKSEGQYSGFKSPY

Caspase-1 [6] = test: LPS/ATP-induced Caspase-1 activation, mouse bone marrow-derived macrophages, western blot

Cc1cn([C@H]2C=C[C@@H](CO)O2)c(=O)[nH]c1=O [d4T, 2′3′ dideoxythymidine]
logP [1]: -0.23
Caspase-1 cleavage (luminescence) (Caspase-1 [2]; ATP 5 mM, drug 1 nM-100 μM, N=3): reduces Caspase-1 cleavage in a dose-dependent fashion
reduction of inflammasome activation (Caspase-1 [2]; ATP (5 mM), mouse J774 iGLuc cells, FIGS. 70-73): about 35%
Caspase 1 cleavage to active 20 kDa form induced by Alu RNA (Caspase-1 [3]): prevents Caspase 1 cleavage
IL-18 maturation induced by LPS/ATP (IL-18): inhibit
secretion of mature IL-1 beta upon LPS/ATP (IL-1 beta): blocks secretion of mature IL-1 beta
extracellular potassium levels after Alu RNA transfection (primary human RPE cells): reduces extracellular potassium levels
P2X7 cation channel function (mouse P2X7 receptor): did not significantly modulate P2X7 cation channel function
lentivirus replication (GFP-positive cells per field) ([4]; 10 μM, 72 hours, MOI 20): blocked lentivirus GFP expression
replication of GFP-expressing lentivirus ([4]; FIG. 22, concentration not given): blocks replication
neutrophil migration to the focus of liver injury [5]: reduced neutrophil migration
P2X7-mediated YO-PRO-1 dye uptake induced by bzATP (human P2X7 receptor): inhibited
Caspase-1 activation (active p20 band) induced by LPS/ATP (Caspase-1 [6]; 100 uM, cell culture supernatants): inhibit Caspase-1 activation
LPS/ATP-induced Caspase-1 maturation (Caspase-1 [6]; concentration not given): inhibited LPS/ATP-induced Caspase-1 maturation
